Test results as given in patent publication US12162872B2, “Cycloalkylurea derivative” (Sumitomo Pharma Co., Ltd., priority 2019, dated 2024).

The compounds below were run against T1, Human orexin receptor type 2 (Homo sapiens, UniProt O43614) (assay: Test 1: Evaluation of agonist activity for orexin receptor type 2 (aequorin luminescence, intracellular calcium mobilization in CHO cells)). Settings: relative percentage of luminescence for the luminescence (100%) of Orexin A (100 pM); CHO cells transiently expressing human orexin receptor type 2 and apoaequorin; Orexin A Lot. 641114.
T1 construct: expressed in transfected cells; host or cells: CHO cells (transient expression)
T1 sequence (O43614 1-444): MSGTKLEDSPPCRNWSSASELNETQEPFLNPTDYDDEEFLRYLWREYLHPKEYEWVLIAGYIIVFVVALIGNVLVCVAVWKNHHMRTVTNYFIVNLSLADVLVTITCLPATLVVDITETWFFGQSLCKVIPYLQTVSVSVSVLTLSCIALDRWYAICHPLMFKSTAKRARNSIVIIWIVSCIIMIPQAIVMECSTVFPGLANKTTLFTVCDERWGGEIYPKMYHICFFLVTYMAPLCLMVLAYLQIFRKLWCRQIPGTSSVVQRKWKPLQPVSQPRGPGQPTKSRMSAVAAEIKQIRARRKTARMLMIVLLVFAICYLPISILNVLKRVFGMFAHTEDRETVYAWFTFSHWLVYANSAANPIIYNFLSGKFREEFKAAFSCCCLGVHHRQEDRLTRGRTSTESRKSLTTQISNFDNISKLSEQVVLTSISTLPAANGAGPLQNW
Type: cell-based
Description: Test 1: Evaluation of Agonist Activity for Orexin Receptor Type 2
Human orexin receptor type 2 and apoaequorin were transiently expressed in CHO cells, and the agonist activity was evaluated based on intracellular calcium mobilization with ligand stimulation. The CHO cells transiently-expressed human orexin receptor type 2 and apoaequorin were seeded on a 384-well plate by 2,000 cells/well, and then incubated for 16-22 hours. After the plate was returned to room temperature, Coelenterazine hcp (final concentration: 1 μM) was added to the plate, and the plate was allowed to stand at room temperature for 2 hours. And then, Orexin A (PEPTIDE INSTITUTE, INC., Lot. 641114) or each test compound was added to the plate, and the luminescence of the cells was measured with FDSS7000 (Hamamatsu Photonics K.K.), wherein Orexin A and each test compound were dissolved in DMSO (final concentration: 0.1%), and diluted with a buffer (Hanks, 20 mM HEPES, 0.1% BSA). The agonist activity of each test compound for orexin receptor type 2 was calculated as relative percentage of luminescence for the luminescence (100%) of Orexin A (100 pM).

Row | Compound | agonist activity (%)
1 | CC(C)N1CCN([C@H]2CCCC(F)(F)[C@@H]2NC(=O)N2CCC(C)(c3nc4ccccc4o3)CC2)CC1 (racemic) [Example 21, rac-4-(1,3-benzoxazol-2-yl)-N-{(1R,6S)-2,2-difluoro-6-[4-(propan-2-yl)piperazin-1-yl]cyclohexyl}-4-methylpiperidine-1-carboxamide] | 153
2 | CC(C)N1CCN([C@H]2CCCC(F)(F)[C@@H]2NC(=O)N2CCC(C)(C3CCCC3)CC2)CC1 (racemic) [Example 26, rac-4-cyclopentyl-N-{(1R,6S)-2,2-difluoro-6-[4-(propan-2-yl)piperazin-1-yl]cyclohexyl}-4-methylpiperidine-1-carboxamide] | 198
3 | CC(C)N1CCN([C@H]2CCCC(F)(F)[C@@H]2NC(=O)N2CCC(C)(c3nc4c(o3)CCCC4)CC2)CC1 (racemic) [Example 27, rac-N-{(1R,6S)-2,2-difluoro-6-[4-(propan-2-yl)piperazin-1-yl]cyclohexyl}-4-methyl-4-(4,5,6,7-tetrahydro-1,3-benzoxazol-2-yl)piperidine-1-carboxamide] | 162
4 | CCc1nc(C2(C)CCN(C(=O)N[C@@H]3[C@@H](N4CCN(C(C)C)CC4)CCCC3(F)F)CC2)no1 (racemic) [Example 28, rac-N-{(1R,6S)-2,2-difluoro-6-[4-(propan-2-yl)piperazin-1-yl]cyclohexyl}-4-(5-ethyl-1,2,4-oxadiazol-3-yl)-4-methylpiperidine-1-carboxamide] | 190
5 | CC(C)N1CCN([C@H]2CCCC(F)(F)[C@@H]2NC(=O)N2CCC(C)(c3ncn(C4CC4)n3)CC2)CC1 (racemic) [Example 29, rac-4-(1-cyclopropyl-?H-1,2,4-triazol-3-yl)-N-{(1R,6S)-2,2-difluoro-6-[4-(propan-2-yl)piperazin-1-yl]cyclohexyl}-4-methylpiperidine-1-carboxamide] | 109
6 | CC(C)N1CCN([C@H]2CCCC(F)(F)[C@@H]2NC(=O)N2CCC(C)(C3CCC(F)(F)CC3)CC2)CC1 (racemic) [Example 30, rac-4-(4,4-difluorocyclohexyl)-N-{(1R,6S)-2,2-difluoro-6-[4-(propan-2-yl)piperazin-1-yl]cyclohexyl}-4-methylpiperidine-1-carboxamide] | 128
7 | CC(C)N1CCN([C@H]2CCCC(F)(F)[C@@H]2NC(=O)N2CCC(C)(c3nsc(C4CC4)n3)CC2)CC1 (racemic) [Example 31, rac-4-(5-cyclopropyl-1,2,4-thiadiazol-3-yl)-N-{(1R,6S)-2,2-difluoro-6-[4-(propan-2-yl)piperazin-1-yl]cyclohexyl}-4-methylpiperidine-1-carboxamide] | 168
8 | CC(C)N1CCN([C@H]2CCCC(F)(F)[C@@H]2NC(=O)N2CCC3(CCCC3)CC2)CC1 (racemic) [Example 33, rac-N-{(1R,6S)-2,2-difluoro-6-[4-(propan-2-yl)piperazin-1-yl]cyclohexyl}-8-azaspiro[4.5]decane-8-carboxamide] | 123
9 | CC(C)N1CCN([C@H]2CCCC(F)(F)[C@@H]2NC(=O)N2CCC(C)(c3nnc(C4CC4)s3)CC2)CC1 (racemic) [Example 34, rac-4-(5-cyclopropyl-1,3,4-thiadiazol-2-yl)-N-{(1R,6S)-2,2-difluoro-6-[4-(propan-2-yl)piperazin-1-yl]cyclohexyl}-4-methylpiperidine-1-carboxamide] | 183
10 | CC(C)N1CCN([C@H]2CCCC(F)(F)[C@@H]2NC(=O)N2CCC(C3CCCCC3)CC2)CC1 (racemic) [Example 35, rac-4-cyclohexyl-N-{(1R,6S)-2,2-difluoro-6-[4-(propan-2-yl)piperazin-1-yl]cyclohexyl}piperidine-1-carboxamide] | 165
11 | CC(C)N1CCN([C@H]2CCCC(F)(F)[C@@H]2NC(=O)N2CCC(O)(c3ccc(Cl)cc3)CC2)CC1 (racemic) [Example 41, rac-4-(4-chlorophenyl)-N-{(1R,6S)-2,2-difluoro-6-[4-(propan-2-yl)piperazin-1-yl]cyclohexyl}-4-hydroxypiperidine-1-carboxamide] | 23
12 | CC(C)N1CCN([C@H]2CCCC(F)(F)[C@@H]2NC(=O)N2CCC(C)(Oc3ccccn3)CC2)CC1 (racemic) [Example 42, rac-N-{(1R,6S)-2,2-difluoro-6-[4-(propan-2-yl)piperazin-1-yl]cyclohexyl}-4-methyl-4-[(pyridin-2-yl)oxy]piperidine-1-carboxamide] | 141
13 | COc1nc(C2(C)CCN(C(=O)N[C@@H]3[C@@H](N4CCN(C(C)C)CC4)CCCC3(F)F)CC2)ns1 (racemic) [Example 45, rac-N-{(1R,6S)-2,2-difluoro-6-[4-(propan-2-yl)piperazin-1-yl]cyclohexyl}-4-(5-methoxy-1,2,4-thiadiazol-3-yl)-4-methylpiperidine-1-carboxamide] | 150
14 | CC(C)N1CCN([C@H]2CCCC(F)(F)[C@@H]2NC(=O)N2CCC(C)(c3csc(C4CC4)n3)CC2)CC1 (racemic) [Example 47, rac-4-(2-cyclopropyl-1,3-thiazol-4-yl)-N-{(1R,6S)-2,2-difluoro-6-[4-(propan-2-yl)piperazin-1-yl]cyclohexyl}-4-methylpiperidine-1-carboxamide] | 163

The remaining lines, values ahead:

Row | agonist activity (%) | Compound
15 | 176 | CC(C)N1CCN([C@H]2CCCC(F)(F)[C@@H]2NC(=O)N2CCC(c3ccccn3)CC2)CC1 (racemic) [Example 32, rac-N-{(1R,6S)-2,2-difluoro-6-[4-(propan-2-yl)piperazin-1-yl]cyclohexyl}-4-(pyridin-2-yl)piperidine-1-carboxamide]
16 | 114 | CC(C)N1CCN([C@H]2CCCC(F)(F)[C@@H]2NC(=O)N2CCC(c3ncccn3)CC2)CC1 (racemic) [Example 36, rac-N-{(1R,6S)-2,2-difluoro-6-[4-(propan-2-yl)piperazin-1-yl]cyclohexyl}-4-(pyrimidin-2-yl)piperidine-1-carboxamide]
17 | 45 | CC(C)N1CCN([C@H]2CCCC(F)(F)[C@@H]2NC(=O)N2CCC(O)(c3ccccn3)CC2)CC1 (racemic) [Example 37, rac-N-{(1R,6S)-2,2-difluoro-6-[4-(propan-2-yl)piperazin-1-yl]cyclohexyl}-4-hydroxy-4-(pyridin-2-yl)piperidine-1-carboxamide]
18 | 142 | CC(C)N1CCN([C@H]2CCCC(F)(F)[C@@H]2NC(=O)N2CCC(c3ccccc3)CC2)CC1 (racemic) [Example 38, rac-N-{(1R,6S)-2,2-difluoro-6-[4-(propan-2-yl)piperazin-1-yl]cyclohexyl}-4-phenylpiperidine-1-carboxamide]
19 | 157 | CC(C)N1CCN([C@H]2CCCC(F)(F)[C@@H]2NC(=O)N2CCC(C)(c3ccccc3)CC2)CC1 (racemic) [Example 39, rac-N-{(1R,6S)-2,2-difluoro-6-[4-(propan-2-yl)piperazin-1-yl]cyclohexyl}-4-methyl-4-phenylpiperidine-1-carboxamide]
20 | 136 | CC(C)N1CCN([C@H]2CCCC(F)(F)[C@@H]2NC(=O)N2CCC(F)(c3ccccn3)CC2)CC1 (racemic) [Example 46, rac-N-{(1R,6S)-2,2-difluoro-6-[4-(propan-2-yl)piperazin-1-yl]cyclohexyl}-4-fluoro-4-(pyridin-2-yl)piperidine-1-carboxamide]
